# Test system: T1, purified human Hsp90
# T1 construct: purified human Hsp90 (Stressgen, SPP-770)
# Assay: Hsp90 binding assay: displacement of BODIPY-labeled geldanamycin measured by fluorescence polarization
# Settings: 5 μM compound; BODIPY-GM 10 nM, Hsp90 30 nM, overnight at room temperature
# Summary of the method: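 Purified human Hsp90 at 30 nM and 10 nM BODIPY-GM tracer were incubated overnight at room temperature with compound in 2% DMSO. The buffer was 20 mM HEPES-KOH pH 7.3, 50 mM KCl, 5 mM MgCl2, 20 mM Na2MoO4, 2 mM DTT. Background-subtracted mP values read at 485/530 nm were normalized to DMSO wells to give % inhibition.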
row,SMILES,GM displacement from purified Hsp90 measured by FP Inhibition by 5 μM compd. (%)
1,"CS(=O)(=O)N1CCC(CCn2cnc(N)c3nc(Sc4cc5c(cc4Br)OCCO5)nc2-3)CC1 [compound 17, 8-[(7-Bromo-2,3-dihydro-1,4-benzodioxin-6-yl)thio]-3-{2-[1-(methylsulfonyl)piperidin-4-yl]ethyl}-3H-purin-6-amine]",33.0
2,"COc1ccc(Br)c(Sc2nc3c(N)ncn(CCC4CCN(C(C)=O)CC4)c-3n2)c1 [compound 19, 3-[2-(1-Acetylpiperidin-4-yl)ethyl]-8-[(2-bromo-5-methoxyphenyl)thio]-3H-purin-6-amine]",10.0
3,"Cn1nnnc1N1CCC(CCn2cnc(N)c3nc(Sc4cc5c(cc4Br)OCCO5)nc2-3)CC1 [compound 22, 8-[(7-Bromo-2,3-dihydro-1,4-benzodioxin-6-yl)thio]-3-{2-[1-(1-methyl-1H-tetrazol-5-yl)piperidin-4-yl]ethyl}-3H-purin-6-amine]",46.0
4,"CC(C)C(=O)N1CCC(CCn2cnc(N)c3nc(Sc4cc5c(cc4Br)OCCO5)nc2-3)CC1 [compound 24, 8-[(7-Bromo-2,3-dihydro-1,4-benzodioxin-6-yl)thio]-342-(1-isobutyrylpiperidin-4-ypethyl]-3H-purin-6-amine]",28.0
5,"CC(C)C(=O)N1CCC(CCn2cnc(N)c3nc(Sc4cc5c(cc4Br)OCO5)nc2-3)CC1 [compound 26, 8-[(6-Bromo-1,3-benzodioxol-5-yl)thio]-3-[2-(1-isobutyrylpiperidin-4-yl)ethyl]-3H-purin-6-amine]",55.0
6,"CCN(CC)C(=O)CN1CCC(CCn2cnc(N)c3nc(Sc4cc5c(cc4Br)OCCO5)nc2-3)CC1 [compound 28, 2-[4-(2-{6-Amino-8-[(7-bromo-2,3-dihydro-1,4-benzodioxin-6-yl)thio]-3H-purin-3-yl}ethyl)piperidin-1-yl]-N,N-diethylacetamide]",40.0
7,"Nc1ncn(CCn2c(=O)n3n(c2=O)CC=CC3)c2nc(Sc3cc4c(cc3Br)OCO4)nc1-2 [compound 30, 2-(2-{6-Amino-8-[(6-bromo-1,3-benzodioxol-5-yl)thio]-3H-purin-3-yl}ethyl)-5,8-dihydro-1H-[1,2,4]triazolo[1,2-a]pyridazine-1,3(2H)-dione]",23.0
8,N#CCCN1CCC(CCn2cnc(N)c3nc(Sc4cc5c(cc4Br)OCO5)nc2-3)CC1 [compound 32],9.0

# Same assay, conditions: BODIPY-GM 10 nM, Hsp90 30 nM, overnight at room temperature; read-out: GM displacement from purified Hsp90 measured by FP IC 50
row,SMILES,IC50 [nM]
1,"CC(C)C(=O)N1CCC(CCn2c(Sc3cc4c(cc3Br)OCCO4)nc3c(N)ncnc32)CC1 [compound 23, 8-[(7-Bromo-2,3-dihydro-1,4-benzodioxin-6-yl)thio]-9-[2-(1-isobutyrylpiperidin-4-yl)ethyl]-9H-purin-6-amine]",195
2,"CC(C)C(=O)N1CCC(CCn2c(Sc3cc4c(cc3Br)OCO4)nc3c(N)ncnc32)CC1 [compound 25, 8-[(6-Bromo-1,3-benzodioxol-5-yl)thio]-9-[2-(1-isobutyrylpiperidin-4-yl)ethyl]-9H-purin-6-amine]",110
3,"CCN(CC)C(=O)CN1CCC(CCn2c(Sc3cc4c(cc3Br)OCCO4)nc3c(N)ncnc32)CC1 [compound 27, 2-[4-(2-{6-Amino-8-[(7-bromo-2,3-dihydro-1,4-benzodioxin-6-yl)thio]-9H-purin-9-yl}ethyl)piperidin-1-yl]-N,N-diethylacetamide]",110
4,"Nc1ncnc2c1nc(Sc1cc3c(cc1Br)OCO3)n2CCn1c(=O)n2n(c1=O)CC=CC2 [compound 29, 2-(2-{6-Amino-8-[(6-bromo-1,3-benzodioxol-5-yl)thio]-9H-purin-9-yl}ethyl)-5,8-dihydro-1H-[1,2,4]triazolo[1,2-a]pyridazine-1,3(2H)-dione]",1800
5,Nc1ncnc2c1nc(Sc1cc3c(cc1Br)OCO3)n2CCCn1c(=O)n2n(c1=O)CC=CC2 [compound 31],900

# Reference: patent publication US20100292255A1, “Therapeutic Compounds and Their Use in Treating Diseases and Disorders” (Myriad Pharmaceuticals, Inc., priority 2007, published 2010)
